Assay results: article PMC4769301, “Affinity Enhancement by Ligand Clustering Effect Inspired by Peptide Dendrimers−Shank PDZ Proteins Interactions” (PLoS ONE, 2016)
Where “and” joins values, the source holds several entries; their conditions need not be identical. Equal entries are not always repeated. Where two headings read alike, the source gives them in different places. Values belong to the molecule of their own block, whether it stands above or below them. Numbered stars: 1 amine (or outer) side, 2 acyl side, 3 side chain; on linkers, the order of the positions; unused ones are H or OH. Bridge positions count the residues as written; N and C are the ends. Ends that are not written are not given here. Peptide text beside a SMILES is read from it. I, II: the chains in the order shown. X1 = O=C1CC([*:1])C(=O)N1CCN(CCN1C(=O)CC([*:2])C1=O)CCN1C(=O)CC([*:3])C1=O; X3 = O=C1CC([*:1])C(=O)N1CCOCCOCCOCCN1C(=O)CC([*:2])C1=O; X2 = O=C1CC([*:1])C(=O)N1CCOCCOCCN1C(=O)CC([*:2])C1=O

Assays:
[1] = target: T1, Shank1 PDZ (Rattus norvegicus, UniProt Q9WV48); experiment: Isothermal titration calorimetry, Shank1 PDZ; format: binding
T1 construct: His tag; made in house; host or cells: E. coli BL21
T1 sequence (Q9WV48 653-765): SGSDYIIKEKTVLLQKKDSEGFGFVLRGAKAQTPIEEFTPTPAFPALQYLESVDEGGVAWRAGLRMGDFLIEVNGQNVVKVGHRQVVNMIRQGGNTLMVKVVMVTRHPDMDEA
Text: (§1) Gene encoding the Shank1 PDZ (Swiss-Prot accession number Q9WV48.1, residues 653–765) was synthesized by GenScript Inc., and digested by Nde I and Xho I restriction enzymes and ligated into pET28a vector to generate pET28-Shank1 PDZ plasmid (S1A Fig). The plasmid pET.M.3C Shank3 PDZ (Swiss-Prot accession number Q4ACU6.3, residues 533–665) was a gift from Prof. Mingjie Zhang’s group from Division of Life Science, Hong Kong University of Science and Technology. The recombinant plasmid pET28-Shank1 PDZ and pET.M.3C Shank3 PDZ were transformed into E. coli BL21 cells for protein production. Mono-clones were pre-cultured overnight at 37°C, and then cultures were added to new media, shaken at 37 °C until optical density at 600 nm reached 0.6–0.8. Then isopropyl β-D-1-thiogalactopyranoside was added at final concentration 1 mM to induce protein overexpression, the culture was shaken overnight at 16°C.
(§2) Prior to use, lyophilized peptides were dissolved in the storage buffer (50 mM sodium phosphate, 200 mM NaCl, pH 7.4). All the peptides and protein solution were filtered through 0.1 μm membrane, and their concentrations were adjusted according to experiments requirement: except for the binding pair p1 ligand and Shank1 PDZ, the proteins concentration were between 30–40 μM, ligands concentration were between 300–400 μM; and for the binding pair p1 ligand and Shank1 PDZ, the affinity was very low so that protein concentration was adjusted to about 315 μM and p1 ligand concentration was adjusted to about 3.14 mM to get accuracy affinity data. All the solutions were extensively degassed just before titration. Titrations were performed at 25°C by MicroCal VP-ITC (Malvern), and data were analyzed by Origin software (Origin Lab) and fitted to single-binding-site model.

[2] = target: T2, Shank3 PDZ (Mus musculus, UniProt Q4ACU6); experiment: Isothermal titration calorimetry, Shank3 PDZ; format: binding
T2 construct: His tag; made in house; host or cells: E. coli BL21
T2 sequence (Q4ACU6 533-665): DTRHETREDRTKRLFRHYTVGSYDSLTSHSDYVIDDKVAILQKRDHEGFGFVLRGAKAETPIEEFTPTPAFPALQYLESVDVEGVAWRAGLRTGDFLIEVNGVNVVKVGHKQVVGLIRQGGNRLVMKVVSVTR
Text: as §1, §2

[3] = target: T1, Shank1 PDZ; experiment: Native mass spectrometry, Shank1 PDZ; format: binding; details: for complexes with higher stoichiometry such as 2:1 or 3:1: native MS, protein/peptide ratio 4:1, protein in excess, within the detection limit of native MS
Description: Prior to the experiment, the protein solution was extensively dialyzed at 4°C against 150mM ammonium acetate. During the dialysis, Shank1 PDZ yielded no precipitate, while Shank3 PDZ was largely precipitated out. Increasing the concentration of ammonium acetate to 200–500 mM couldn’t alleviate precipitation. Lyophilized peptides were also dissolved in the 150 mM ammonium acetate. All the peptides and protein solution were filtered through 0.1 μm membrane, and their concentrations were adjusted according to experiments requirement. The protein and peptide were mixed as the corresponding ratio and incubated at room temperature for 20 minutes.
Positive ion electrospray ionization mass spectra were acquired on a Micromass Q-Tof micro mass spectrometer (Waters), with a nanoESI source using EconoTips. The capillary voltage was adjusted in the range of 1.2–2.2 kV until optimal ion signals were obtained. The cone voltage of the Q-TOF was set at 20 V, and the ion source temperature was set at 40°C.

[4] = target: T1, Shank1 PDZ; experiment: Surface plasmon resonance, immobilized Shank1 PDZ; format: binding; details: for kon: pH 7.4, read-out: association rate constant kon; for koff: pH 7.4, read-out: dissociation rate constant koff
Description: Prior to use, lyophilized peptides were dissolved in the storage buffer (50 mM sodium phosphate, 200 mM NaCl, pH 7.4) at high concentration and diluted to required concentration using running buffer (HBS-EP: 0.01 M HEPES pH 7.4, 0.15 M NaCl, 3 mM EDTA, 0.005% v/v Surfactant P20). All the peptides and protein solution were filtered through 0.1 μm membrane, and their concentrations were adjusted according to experiments requirement: for ligand p1, concentration series of 10.8 μM, 21.6 μM, 43.2 μM, 86.5μM, 173μM, 346μM were used; for ligand p2, concentrations series of 10 μM, 20 μM, 40 μM, 80 μM, 160 μM, 320 μM were used; for ligand p3, concentrations series of 2.63 μM, 5.27 μM, 10.5 μM, 21.1 μM, 42.1 μM, 84.3 μM were used. All sample solution and running buffer were extensively degassed just before titration. Shank1 PDZ protein was coupled on CM5 chip using EDC/NHS method.
Running were performed at 25°C on Biacore 3000 (GE), and data were processed by BIAevaluation software and fitted to steady state affinity model and 1:1 Langmuir binding model. 1:1 Langmuir binding model which show kinetics data was analyzed by BIAevaluation software. Steady state affinity model which show affinity data was analyzed by Origin software using the following equation: Req=KACRmax/1+KACn

[5] = target: T3, p1 (monomeric βPIX peptide) (Rattus norvegicus); experiment: ITC
T3 chain: CGSSGDPAWDETNL

[6] = target: T4, p2 (dimeric peptide, BM(PEG)2) (also: dimer via Cys-BM(PEG)2 linker); experiment: ITC
T4 chain: Ac-CGSSGDPAWDETNL

[7] = target: T5, dimeric peptide BM(PEG)3 (also: dimer via Cys-BM(PEG)3 linker); experiment: ITC
T5 chain: Ac-CGSSGDPAWDETNL

[8] = target: T6, p3 (trimeric peptide, TMEA) (also: trimer via Cys-TMEA linker); experiment: ITC
T6 chain: Ac-CGSSGDPAWDETNL

[9] = target: T3, p1 (monomeric βPIX peptide); experiment: native MS
[10] = target: T4, p2 (dimeric peptide, BM(PEG)2); experiment: native MS
[11] = target: T6, p3 (trimeric peptide, TMEA); experiment: native MS
[12] = target: T4, p2 (dimeric peptide, BM(PEG)2); experiment: SPR kinetics
[13] = target: T6, p3 (trimeric peptide, TMEA); experiment: SPR kinetics
[14] = target: T3, p1 (monomeric βPIX peptide); experiment: SPR steady state
[15] = target: T4, p2 (dimeric peptide, BM(PEG)2); experiment: SPR steady state
[16] = target: T6, p3 (trimeric peptide, TMEA); experiment: SPR steady state
[17] = target: T4, p2 (dimeric peptide, BM(PEG)2); experiment: ITC (diluted ligand)
[18] = target: T6, p3 (trimeric peptide, TMEA); experiment: ITC (diluted ligand)

Molecule: I: Ac-CGSSGDPAWDETNL-OH / II: Ac-CGSSGDPAWDETNL-OH / III: Ac-CGSSGDPAWDETNL-OH (linker I:1-II:1-III:1 via X1) [p3]
Kd [1]: 8.1 µM and 6.5 µM
Kd [2]: 1.9 ± 0.1 µM
Kd [3]: ~4.5 µM
complexes with higher stoichiometry such as 2:1 or 3:1 [3]: not observed
difference in kon ([4]; SPR, 1:1 Langmuir binding model, ligand p3 compared with ligand p2): about 1.2 fold
kon [4]: 78900 M⁻¹ s⁻¹
koff [4]: 0.353 s⁻¹

Molecule: CC(=O)N[C@@H](CSC1CC(=O)N(CCOCCOCCOCCN2C(=O)CC(SC[C@H](NC(C)=O)C(=O)NCC(=O)N[C@@H](CO)C(=O)N[C@@H](CO)C(=O)NCC(=O)N[C@@H](CC(=O)O)C(=O)N3CCC[C@H]3C(=O)N[C@@H](C)C(=O)N[C@@H](Cc3c[nH]c4ccccc34)C(=O)N[C@@H](CC(=O)O)C(=O)N[C@@H](CCC(=O)O)C(=O)N[C@H](C(=O)N[C@@H](CC(N)=O)C(=O)N[C@@H](CC(C)C)C(=O)O)[C@@H](C)O)C2=O)C1=O)C(=O)NCC(=O)N[C@@H](CO)C(=O)N[C@@H](CO)C(=O)NCC(=O)N[C@@H](CC(=O)O)C(=O)N1CCC[C@H]1C(=O)N[C@@H](C)C(=O)N[C@@H](Cc1c[nH]c2ccccc12)C(=O)N[C@@H](CC(=O)O)C(=O)N[C@@H](CCC(=O)O)C(=O)N[C@H](C(=O)N[C@@H](CC(N)=O)C(=O)N[C@@H](CC(C)C)C(=O)O)[C@@H](C)O (some centres unmarked) [dimeric peptide BM(PEG)3] (I: Ac-CGSSGDPAWDETNL-OH / II: Ac-CGSSGDPAWDETNL-OH; linker I:1-II:1 via X3)
Kd [1]: 13.7 ± 0.7 µM

Kd ([1]; MicroCal VP-ITC, 25°C, 50 mM sodium phosphate, 200 mM NaCl, pH 7.4, single-binding-site model, [p1] = 4 mM/[Shank1 PDZ] = 400 μM, [p2] = 326 μM/43 μM, [p3] = 354 μM/35 μM (Fig 3A), read-out: dissociation constant Kd (ITC)): 41 ± 1 µM
Kd ([2]; MicroCal VP-ITC, 25°C, 50 mM sodium phosphate, 200 mM NaCl, pH 7.4, single-binding-site model, [p1] = 406 μM/[Shank3 PDZ] = 40 μM, [p2] = 400 μM/30 μM, [p3] = 315 μM/34 μM, read-out: Kd (ITC)): 24 ± 2 µM
Kd ([3]; rough estimation from peak intensities, 1:1 mixture, 150 mM ammonium acetate, 65 μM each, gas-phase measurement, read-out: dissociation constant estimated from native MS peak intensity): ~13 µM
Kd ([4]; Biacore 3000, 25°C, HBS-EP pH 7.4, Shank1 PDZ coupled on CM5 chip, steady state affinity model, n = 1, read-out: dissociation constant (SPR, steady state affinity model)): 45 ± 6 µM
Molecule: GSGSGDPAWDETNL-OH [p1]

Molecule: CC(=O)N[C@@H](CSC1CC(=O)N(CCOCCOCCN2C(=O)CC(SC[C@H](NC(C)=O)C(=O)NCC(=O)N[C@@H](CO)C(=O)N[C@@H](CO)C(=O)NCC(=O)N[C@@H](CC(=O)O)C(=O)N3CCC[C@H]3C(=O)N[C@@H](C)C(=O)N[C@@H](Cc3c[nH]c4ccccc34)C(=O)N[C@@H](CC(=O)O)C(=O)N[C@@H](CCC(=O)O)C(=O)N[C@H](C(=O)N[C@@H](CC(N)=O)C(=O)N[C@@H](CC(C)C)C(=O)O)[C@@H](C)O)C2=O)C1=O)C(=O)NCC(=O)N[C@@H](CO)C(=O)N[C@@H](CO)C(=O)NCC(=O)N[C@@H](CC(=O)O)C(=O)N1CCC[C@H]1C(=O)N[C@@H](C)C(=O)N[C@@H](Cc1c[nH]c2ccccc12)C(=O)N[C@@H](CC(=O)O)C(=O)N[C@@H](CCC(=O)O)C(=O)N[C@H](C(=O)N[C@@H](CC(N)=O)C(=O)N[C@@H](CC(C)C)C(=O)O)[C@@H](C)O (some centres unmarked) [p2] (I: Ac-CGSSGDPAWDETNL-OH / II: Ac-CGSSGDPAWDETNL-OH; linker I:1-II:1 via X2)
Kd [1]: 16.6 µM and 18 µM
Kd [2]: 5.9 ± 0.4 µM
Kd [3]: ~5.3 µM
complexes with higher stoichiometry such as 2:1 or 3:1 [3]: not observed
kon [4]: 65200 M⁻¹ s⁻¹
koff [4]: 1.12 s⁻¹

Kd [5]: 41 µM
Kd [6]: 16.6 µM
Kd [7]: 13.7 µM
Kd [8]: 8.1 µM
Kd [9]: ~13 µM
Kd [10]: ~5.3 µM
Kd [11]: ~4.5 µM
Kd [12]: 17.1 µM
Kd [13]: 4.48 µM
Kd [14]: 45 µM
Kd [15]: 19 µM
Kd [16]: 6 µM
Kd [17]: 18 µM
Kd [18]: 6.5 µM
B1: Shank1 PDZ 653-765 (protein)
chain: T1 sequence (Q9WV48 653-765)

Kd [5]: 24 µM
Kd [6]: 5.9 µM
Kd [8]: 1.9 µM
B2: Shank3 PDZ 533-665 (protein)
chain: T2 sequence (Q4ACU6 533-665)
